Test systems include TK-10 renal; SK-MEL-5 melanoma; NCI-H23 lung; UACC-257 melanoma; A498 renal; UACC-62 melanoma; SF-539 CNS; EKVX NSCLC; MALME-3M melanoma; MOLT-4 leukemia.
Holding throughout (test): NCI tumour cell line growth inhibition, 48 h

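96-well plates; 48 h exposure; 5 concentrations. Endpoints by linear interpolation between flanking doses. Not reached: highest tested concentration assigned. GI50: concentration for 50% inhibition of growth. TGI: concentration producing complete growth inhibition.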

For the compound `O=c1[nH]c2ccccc2n1C1CCN(CCOc2ccccc2)CC1`, the GI50 in the experiment with TK-10 renal was 86.2 µM; with SK-MEL-5 melanoma, 16 µM; with NCI-H23 lung it was 30.5 µM; with UACC-257 melanoma, 70.7 µM; in the experiment with A498 renal it was 17.1 µM; in the experiment with UACC-62 melanoma, 50.5 µM. For the same compound, the GI50 is 44.9 µM with SF-539 CNS, 7.05 µM in the experiment with EKVX NSCLC, 51.5 µM in the experiment with MALME-3M melanoma and 48 µM in the experiment with MOLT-4 leukemia. Also, the TGI in the experiment with TK-10 renal is above 100 µM; in the experiment on SK-MEL-5 melanoma, 42 µM; in the experiment with NCI-H23 lung, above 100 µM; in the experiment with UACC-257 melanoma it was above 100 µM; in the experiment on A498 renal, 99.6 µM; in the experiment on UACC-62 melanoma, above 100 µM. Besides, the TGI is above 100 µM in the experiment on SF-539 CNS, 58.4 µM in the experiment on EKVX NSCLC, above 100 µM in the experiment with MALME-3M melanoma and above 100 µM in the experiment with MOLT-4 leukemia.

In the case of `Cc1ccc(NC2=CC(=O)C(=O)c3ccccc32)cc1`, the GI50 with TK-10 renal is 2.83 µM; in the experiment with SK-MEL-5 melanoma, 1.38 µM; in the experiment with NCI-H23 lung it was 1.56 µM; in the experiment with UACC-257 melanoma, 1.43 µM; in the experiment on A498 renal, 1.32 µM; with UACC-62 melanoma it was 1.73 µM. Besides, the GI50 is 1.8 µM with SF-539 CNS, 4 µM with EKVX NSCLC, 1.63 µM in the experiment on MALME-3M melanoma and 3.71 µM in the experiment on MOLT-4 leukemia. The TGI with TK-10 renal turned out to be 11 µM; in the experiment with SK-MEL-5 melanoma, 2.67 µM; in the experiment with NCI-H23 lung, 4.1 µM; in the experiment on UACC-257 melanoma, 2.8 µM; in the experiment with A498 renal it was 5.41 µM; in the experiment with UACC-62 melanoma it was 3.23 µM. Further, the TGI is 3.77 µM with SF-539 CNS, 18.9 µM with EKVX NSCLC, 3.17 µM in the experiment with MALME-3M melanoma and above 100 µM in the experiment on MOLT-4 leukemia.

For the compound `O=C1CCc2ccc(O)c(c2)Oc2ccc(cc2)[C@@H]2O[C@@H]2CO1`, the TGI is above 100 µM in the experiment with TK-10 renal; 58.2 µM with SK-MEL-5 melanoma; above 100 µM in the experiment with NCI-H23 lung; above 100 µM in the experiment with UACC-257 melanoma; 70.7 µM in the experiment on A498 renal; above 100 µM in the experiment with UACC-62 melanoma. Besides, the TGI with SF-539 CNS was above 100 µM; in the experiment with EKVX NSCLC, above 100 µM; in the experiment on MALME-3M melanoma it was 62.1 µM; in the experiment on MOLT-4 leukemia, above 100 µM.

For the compound `c1ccc2c(c1)[nH]c1c3ccccc3sc21`, the TGI in the experiment on TK-10 renal, with SK-MEL-5 melanoma, in the experiment with NCI-H23 lung, with UACC-257 melanoma, in the experiment with A498 renal and in the experiment with UACC-62 melanoma was above 100 µM each time. Also, the TGI in the experiment with SF-539 CNS, in the experiment on EKVX NSCLC, in the experiment with MALME-3M melanoma and in the experiment on MOLT-4 leukemia was above 100 µM each time.

On to `CCC(C(=O)[C@@H](C)[C@@H](O)[C@H](C)[C@@H]1O[C@@H]([C@@H](CC)C(=O)ONC(=O)c2ccccc2)CC[C@@H]1C)[C@H]1O[C@]2(C=CC(=O)[C@]3(CC[C@@](C)([C@H]4CC[C@](O)(CC)[C@H](C)O4)O3)O2)[C@H](C)C[C@@H]1C` (stereo not given in full), for which the GI50 is 1.1 µM in the experiment on TK-10 renal; 0.105 µM with SK-MEL-5 melanoma; 0.175 µM in the experiment with NCI-H23 lung; 0.255 µM with UACC-257 melanoma; 0.0851 µM in the experiment with A498 renal; 1.25 µM in the experiment with UACC-62 melanoma. Moreover, the GI50 is 0.262 µM in the experiment with SF-539 CNS, 0.548 µM in the experiment with EKVX NSCLC, 0.168 µM with MALME-3M melanoma and 0.729 µM with MOLT-4 leukemia. In addition, the TGI was found to be 2.44 µM with TK-10 renal; 0.361 µM with SK-MEL-5 melanoma; 2.08 µM in the experiment on NCI-H23 lung; 5.61 µM in the experiment on UACC-257 melanoma; 0.731 µM in the experiment with A498 renal; 2.93 µM in the experiment on UACC-62 melanoma. Further, the TGI in the experiment on SF-539 CNS stood at 1.71 µM; in the experiment on EKVX NSCLC it was 2.65 µM; in the experiment on MALME-3M melanoma it was 1.06 µM; in the experiment with MOLT-4 leukemia it was 3.32 µM.

For `C=CCN1C(=O)[C@]2(SC1=S)[C@H](c1cccc(Cl)c1)CN(C)[C@]21C(=O)NC2C=CC(Cl)=C[C@H]21` (stereo not given in full), the GI50 with TK-10 renal is 13 µM; in the experiment on SK-MEL-5 melanoma, 5.28 µM; in the experiment with NCI-H23 lung, 6.12 µM; in the experiment with UACC-257 melanoma, 12.2 µM; in the experiment on A498 renal it was 2.7 µM; with UACC-62 melanoma it was 3.7 µM. Moreover, the GI50 with SF-539 CNS is 10.3 µM; in the experiment with EKVX NSCLC it was 4.54 µM; in the experiment on MALME-3M melanoma, 2.88 µM; in the experiment on MOLT-4 leukemia, 2.07 µM. In addition, the TGI in the experiment on TK-10 renal came to 26.9 µM; in the experiment on SK-MEL-5 melanoma, 18.2 µM; with NCI-H23 lung, 22 µM; with UACC-257 melanoma it was 35.8 µM; in the experiment on A498 renal, 7.48 µM; with UACC-62 melanoma, 19.1 µM. Further, the TGI turned out to be 25.6 µM in the experiment on SF-539 CNS, 24.6 µM in the experiment with EKVX NSCLC, 12.7 µM with MALME-3M melanoma and 6.82 µM in the experiment on MOLT-4 leukemia.

Regarding `C=C1C(=O)O[C@H]2[C@H]1CC/C(COC(=O)N[C@H](Cc1c[nH]c3ccccc13)C(=O)OC)=C\CC[C@@]1(C)O[C@@H]21`, the GI50 in the experiment on TK-10 renal is 2.1 µM; in the experiment on SK-MEL-5 melanoma it was 7.03 µM; in the experiment on NCI-H23 lung, 4.3 µM; in the experiment with UACC-257 melanoma it was 2.89 µM; in the experiment on A498 renal, 10.9 µM; with UACC-62 melanoma, 1.88 µM. Further, the GI50 with SF-539 CNS was 2.01 µM; in the experiment with EKVX NSCLC it was 1.8 µM; with MALME-3M melanoma, 1.95 µM; in the experiment on MOLT-4 leukemia it was 2.5 µM. The TGI in the experiment with TK-10 renal amounted to 5.07 µM; in the experiment with SK-MEL-5 melanoma it was 20.5 µM; with NCI-H23 lung, 17.7 µM; with UACC-257 melanoma it was 8.74 µM; with A498 renal, 22.9 µM; with UACC-62 melanoma, 4.4 µM. Also, the TGI in the experiment with SF-539 CNS was 5.37 µM; with EKVX NSCLC it was 5.66 µM; with MALME-3M melanoma, 4.24 µM; with MOLT-4 leukemia it was 7.54 µM.

Consider `Cc1nn(-c2ccccc2)c2nc(C)n(-c3ccc(Br)cc3)c(=O)c12`, for which the GI50 with TK-10 renal was 5.53 µM; in the experiment on SK-MEL-5 melanoma, 0.516 µM; with NCI-H23 lung, 0.823 µM; in the experiment with UACC-257 melanoma, 0.768 µM; in the experiment on A498 renal, 0.219 µM; with UACC-62 melanoma, 0.428 µM. Further, the GI50 was 0.35 µM in the experiment on SF-539 CNS, 0.822 µM in the experiment on EKVX NSCLC, 12.1 µM in the experiment on MALME-3M melanoma and 0.53 µM in the experiment with MOLT-4 leukemia. Moreover, the TGI in the experiment with TK-10 renal was above 100 µM; in the experiment with SK-MEL-5 melanoma, 11.1 µM; with NCI-H23 lung, above 100 µM; with UACC-257 melanoma it was above 100 µM; in the experiment with A498 renal it was 0.816 µM; in the experiment with UACC-62 melanoma, above 100 µM. The TGI is 7.09 µM in the experiment on SF-539 CNS, above 100 µM in the experiment with EKVX NSCLC, 76.9 µM with MALME-3M melanoma and above 100 µM with MOLT-4 leukemia.

As for `N#CCC(=O)Nc1ccccc1O`, the TGI in the experiment with TK-10 renal, with SK-MEL-5 melanoma, in the experiment on NCI-H23 lung, in the experiment with UACC-257 melanoma, in the experiment with A498 renal and in the experiment with UACC-62 melanoma was above 100 µM each time. The TGI in the experiment on SF-539 CNS, in the experiment on EKVX NSCLC, with MALME-3M melanoma and in the experiment with MOLT-4 leukemia was above 100 µM in each case.

The values are drawn from PubChem BioAssay (NCI).
